According to US6441195B1, “Substituted sulphonylamino(thio) carbonyl compounds” (Bayer Aktiengesellschaft, priority 1995, dated 2002):

Assays:
Type in all cases: in vivo
weeds = experiment: Pre-emergence test (greenhouse), activity against weeds; conditions: in words
Description: Solvent: 5 parts by weight of acetone
Emulsifier: 1 part by weight of alkylaryl polyglycol ether
(§1) To produce a suitable preparation of the active compound, 1 part by weight of active compound is mixed with the stated amount of solvent, the stated amount of emulsifier is added and the concentrate is diluted with water to the desired concentration.
(§2) Seeds of the test plants are sown in normal soil. After about 24 hours, the soil is watered with the preparation of active compound. Advantageously, the amount of water per unit area is kept constant. The active compound concentration in the preparation is not important, only the active compound appliation rate per unit area matters.
(§3) After three weeks, the degree of damage to the plants is rated in % damage in comparison to the development of the untreated control.
(§4) 0%=no action (like untreated control)

Maize = experiment: Pre-emergence test/Greenhouse, Maize; conditions: in vivo
Description: as §1, §2, §3, §4

Poa = experiment: Pre-emergence test/Greenhouse, Poa; conditions: after three weeks
Description: as §1, §2, §3, §4

Sorghum = experiment: Pre-emergence test/Greenhouse, Sorghum; conditions: after three weeks
Description: as §1, §2, §3, §4

Ambrosia = experiment: Pre-emergence test/Greenhouse, Ambrosia; conditions: after three weeks
Description: as §1, §2, §3, §4

Matricaria = experiment: Pre-emergence test/Greenhouse, Matricaria; conditions: after three weeks
Description: as §1, §2, §3, §4

Solanum = experiment: Pre-emergence test/Greenhouse, Solanum; conditions: after three weeks
Description: as §1, §2, §3, §4

Lolium = experiment: Pre-emergence test/Greenhouse, Lolium; conditions: after three weeks
Description: as §1, §2, §3, §4

Compound	activity against weeds (weeds)	degree of damage to the plants (% damage vs untreated control), Maize (Maize)	degree of damage to the plants (% damage vs untreated control), Poa (Poa; 125 g of ai./ha)	degree of damage to the plants (% damage vs untreated control), Sorghum (Sorghum; 125 g of ai./ha)	degree of damage to the plants (% damage vs untreated control), Ambrosia (Ambrosia; 125 g of ai./ha)	degree of damage to the plants (% damage vs untreated control), Matricaria (Matricaria; 125 g of ai./ha)	degree of damage to the plants (% damage vs untreated control), Solanum (Solanum; 125 g of ai./ha)	degree of damage to the plants (% damage vs untreated control), Lolium (Lolium; 125 g of ai./ha)	degree of damage to the plants (% damage vs untreated control), Lolium (Lolium; 60 g of ai./ha)	degree of damage to the plants (% damage vs untreated control), Poa (Poa; 60 g of ai./ha)	degree of damage to the plants (% damage vs untreated control), Sorghum (Sorghum; 60 g of ai./ha)	degree of damage to the plants (% damage vs untreated control), Matricaria (Matricaria; 60 g of ai./ha)	degree of damage to the plants (% damage vs untreated control), Solanum (Solanum; 60 g of ai./ha)	degree of damage to the plants (% damage vs untreated control), Ambrosia (Ambrosia; 60 g of ai./ha)
CCCOc1nn(C(=O)NS(=O)(=O)c2c(C)csc2C(=O)OC)c(=O)n1C [Example 33]	very strong activity against weeds	10%	90%	80%	90%	95%	95%	–	–	–	–	–	–	–
COC(=O)c1scc(C)c1S(=O)(=O)NC(=O)n1nc(OC(C)C)n(C2CC2)c1=O [Example 53]	very strong activity against weeds	0%	95%	–	95%	95%	95%	95%	–	–	–	–	–	–
CCOC(=O)c1scc(C)c1S(=O)(=O)NC(=O)n1nc(OC)n(C)c1=O [Example 57]	very strong activity against weeds	0%	–	–	–	–	–	–	95%	95%	95%	95%	95%	–
CCCOc1nn(C(=O)NS(=O)(=O)c2c(C)csc2C(=O)OCC)c(=O)n1C [Example 58]	very strong activity against weeds	20%	95%	–	–	100%	95%	80%	–	–	–	–	–	–
CCOC(=O)c1scc(C)c1S(=O)(=O)NC(=O)n1nc(OC(C)C)n(C)c1=O [Example 59]	very strong activity against weeds	0%	70%	–	95%	100%	95%	100%	–	–	–	–	–	–
CCOC(=O)c1scc(C)c1S(=O)(=O)NC(=O)n1nc(OCC(F)(F)F)n(C)c1=O [Example 62]	very strong activity against weeds	0%	90%	60%	–	95%	95%	80%	–	–	–	–	–	–
CCOC(=O)c1scc(C)c1S(=O)(=O)NC(=O)n1nc(C)n(C)c1=O [Example 65]	very strong activity against weeds	20%	80%	80%	–	95%	95%	80%	–	–	–	–	–	–
CCOC(=O)c1scc(C)c1S(=O)(=O)NC(=O)n1nc(CC)n(C)c1=O [Example 66]	very strong activity against weeds	0%	–	100%	–	100%	100%	100%	–	–	–	–	–	–
CCCc1nn(C(=O)NS(=O)(=O)c2c(C)csc2C(=O)OCC)c(=O)n1C [Example 67]	very strong activity against weeds	0%	–	–	–	–	–	–	100%	–	90%	100%	100%	–
CCOC(=O)c1scc(C)c1S(=O)(=O)NC(=O)n1nc(OC(C)C)n(C2CC2)c1=O [Example 70]	very strong activity against weeds	10%	–	–	–	–	–	–	90%	90%	–	100%	100%	90%
